Results: ChEMBL document CHEMBL4024759, “One-Bead-Two-Compound Thioether Bridged Macrocyclic γ-AApeptide Screening Library against EphA2” (J Med Chem, 2017)

Legend:
C13 [1] = assay: Antimigratory activity in human C13 cells at 10 uM by scratch-wound motility assay; type: functional, cell-based; conditions: TDE = time-dependent effect
C13 [2] = assay: Antimigratory activity in human C13 cells after 24 hrs by scratch-wound motility assay; type: functional, cell-based
C13 [3] = assay: Antimigratory activity in human C13 cells assessed as delay in wound closure at 15 uM after 24 hrs by scratch-wound motility assay; type: functional
[4] = biological target: RAC-alpha serine/threonine-protein kinase (Homo sapiens, UniProt P31749); assay: Binding affinity to AKT1 (unknown origin)
Sequence of RAC-alpha serine/threonine-protein kinase (P31749 whole entry, the tested form may be a part): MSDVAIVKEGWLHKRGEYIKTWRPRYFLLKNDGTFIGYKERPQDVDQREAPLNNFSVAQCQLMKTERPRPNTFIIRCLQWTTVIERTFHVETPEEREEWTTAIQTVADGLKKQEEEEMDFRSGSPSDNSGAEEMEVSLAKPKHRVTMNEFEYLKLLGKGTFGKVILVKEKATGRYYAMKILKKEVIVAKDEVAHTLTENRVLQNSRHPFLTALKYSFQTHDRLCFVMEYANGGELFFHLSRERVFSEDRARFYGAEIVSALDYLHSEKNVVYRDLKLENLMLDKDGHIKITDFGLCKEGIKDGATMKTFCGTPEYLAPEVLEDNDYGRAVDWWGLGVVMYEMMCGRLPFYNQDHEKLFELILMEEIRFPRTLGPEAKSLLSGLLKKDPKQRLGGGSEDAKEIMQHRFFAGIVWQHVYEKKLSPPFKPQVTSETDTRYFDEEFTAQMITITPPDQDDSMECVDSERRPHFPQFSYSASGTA

Ephrin type-A receptor 2 = Ephrin type-A receptor 2 (Homo sapiens, UniProt P29317); assay: Binding affinity to recombinant human GST-tagged EphA2 cytoplasmic domain (560 to 976 residues) expressed in baculovirus expression system by fluorescence polarization assay
Sequence of Ephrin type-A receptor 2 (P29317 whole entry, the tested form may be a part): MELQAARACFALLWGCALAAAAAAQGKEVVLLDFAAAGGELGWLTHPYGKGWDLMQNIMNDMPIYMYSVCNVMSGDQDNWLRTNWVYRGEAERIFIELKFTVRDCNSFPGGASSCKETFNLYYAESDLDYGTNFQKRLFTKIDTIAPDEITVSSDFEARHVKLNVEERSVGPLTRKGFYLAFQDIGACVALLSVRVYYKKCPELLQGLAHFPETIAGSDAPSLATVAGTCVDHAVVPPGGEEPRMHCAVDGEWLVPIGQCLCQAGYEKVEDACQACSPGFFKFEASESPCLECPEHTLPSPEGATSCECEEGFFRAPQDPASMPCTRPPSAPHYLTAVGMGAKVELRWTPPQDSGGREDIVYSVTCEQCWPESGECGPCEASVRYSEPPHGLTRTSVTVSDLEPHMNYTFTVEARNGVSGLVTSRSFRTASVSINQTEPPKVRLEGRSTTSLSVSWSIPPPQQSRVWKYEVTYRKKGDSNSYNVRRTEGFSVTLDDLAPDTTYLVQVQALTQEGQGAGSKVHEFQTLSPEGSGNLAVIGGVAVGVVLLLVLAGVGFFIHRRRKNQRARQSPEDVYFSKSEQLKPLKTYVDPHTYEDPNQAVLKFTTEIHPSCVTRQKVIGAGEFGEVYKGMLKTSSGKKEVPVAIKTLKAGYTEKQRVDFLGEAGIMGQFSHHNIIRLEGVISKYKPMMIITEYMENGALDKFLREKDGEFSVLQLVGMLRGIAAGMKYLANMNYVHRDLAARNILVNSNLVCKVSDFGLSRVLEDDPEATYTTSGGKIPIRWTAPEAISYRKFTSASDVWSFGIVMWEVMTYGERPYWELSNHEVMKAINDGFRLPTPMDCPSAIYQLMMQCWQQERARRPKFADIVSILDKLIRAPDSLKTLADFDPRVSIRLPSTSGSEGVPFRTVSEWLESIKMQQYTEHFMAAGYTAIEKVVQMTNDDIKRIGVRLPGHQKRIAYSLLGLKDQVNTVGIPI

Homo sapiens = organism: Homo sapiens; assay: Selectivity ratio of Kd for GST (unknown origin) to Kd for recombinant human GST-tagged EphA2 cytoplasmic domain (560 to 976 residues) expressed in baculovirus expression system
[5] = Binding affinity to GST (unknown origin) by fluorescence polarization assay; design: species or system Homo sapiens
[6] = biological target: T1, NF-kappa-B inhibitor alpha (Homo sapiens, UniProt P25963); assay: Binding affinity to NFKBIA (unknown origin)
T1 sequence (P25963 whole entry): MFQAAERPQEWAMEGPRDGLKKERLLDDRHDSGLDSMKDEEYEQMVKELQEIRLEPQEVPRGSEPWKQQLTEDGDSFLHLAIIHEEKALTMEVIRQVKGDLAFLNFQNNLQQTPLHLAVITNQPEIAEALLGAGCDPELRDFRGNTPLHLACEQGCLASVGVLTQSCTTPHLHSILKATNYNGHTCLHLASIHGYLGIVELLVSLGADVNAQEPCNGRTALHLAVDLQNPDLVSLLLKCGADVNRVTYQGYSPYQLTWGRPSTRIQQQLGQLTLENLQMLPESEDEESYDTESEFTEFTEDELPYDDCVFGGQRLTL

NC(=O)CN1C[C@H](Cc2ccccc2)NC(=O)CN(C(=O)CCC(=O)O)C[C@H](CCC(=O)O)NC(=O)CN(C(=O)Cc2ccc3c(c2)OCO3)C[C@H](CCC(=O)O)NC(=O)CN(C(=O)CCC2CCCCC2)C[C@H](Cc2ccccc2)NC(=O)c2ccc(cc2)CSCCC1=O
Activity (C13 [1]): Tde | Activity (C13 [2]): Dose-dependent effect | Activity (C13 [3]): 70%

NC(=O)[C@H](CCCCNC(=S)Nc1ccc(-c2c3ccc(=O)cc-3oc3cc(O)ccc23)c(C(=O)O)c1)NC(=O)CN1C[C@H](Cc2ccccc2)NC(=O)CN(C(=O)CCC(=O)O)C[C@H](CCC(=O)O)NC(=O)CN(C(=O)Cc2ccc3c(c2)OCO3)C[C@H](CCC(=O)O)NC(=O)CN(C(=O)CCC2CCCCC2)C[C@H](Cc2ccccc2)NC(=O)c2ccc(cc2)CSCCC1=O
Kd [4]: 3620 nM | Kd (Ephrin type-A receptor 2): 81 nM | Selectivity ratio (Homo sapiens): 170 | Kd [5]: 14200 nM | Kd [6]: 741 nM
